These results are taken from BindingDB's records for doi:10.1016/S0960-894X(00)80383-2 (1992).

The experiment can be described thus: Concentration required to inhibit the enzyme cathepsin.

pKi: −log10 of the molar value. Structures can show the parent of a compound that is named as a salt.

`CCC[C@H](NC(=O)[C@H](Cc1ccc(OC)cc1)NC(=O)CC(C)C)C(=O)N[C@@H](CC1CCCCC1)C(=O)C(F)(F)CN` [(S)-2-[(S)-3-(4-Methoxy-phenyl)-2-(3-methyl-butyrylamino)-propionylamino]-pentanoic acid ((S)-4-amino-1-cyclohexylmethyl-3,3-difluoro-2-oxo-butyl)-amide; hydrochloride]: the pKi (usually −log10 of the Ki, conventionally taken in molar units) was 5.40.
